Experimental data as given in patent US20140011799A1 (Bristol-Myers Squibb Company, priority 2012, published 2014).

How the values were obtained:
Endothelial lipase (EL) = target: T1, Endothelial lipase (EL) (Homo sapiens, UniProt Q9Y5X9); assay: Endothelial lipase (EL) enzymatic assay, fluorescent substrate A10070 in DMPG vesicles; assay type: biochemical; details: EL from conditioned media of HT-1080 cells; compound preincubated 30 min at 37° C; read-out: EL IC50
T1 construct: HT-1080 cells that were transformed using RAGE technology (Athersys) to overexpress endogenous EL; endogenous in cells; conditioned medium used
T1 sequence (Q9Y5X9 21-500): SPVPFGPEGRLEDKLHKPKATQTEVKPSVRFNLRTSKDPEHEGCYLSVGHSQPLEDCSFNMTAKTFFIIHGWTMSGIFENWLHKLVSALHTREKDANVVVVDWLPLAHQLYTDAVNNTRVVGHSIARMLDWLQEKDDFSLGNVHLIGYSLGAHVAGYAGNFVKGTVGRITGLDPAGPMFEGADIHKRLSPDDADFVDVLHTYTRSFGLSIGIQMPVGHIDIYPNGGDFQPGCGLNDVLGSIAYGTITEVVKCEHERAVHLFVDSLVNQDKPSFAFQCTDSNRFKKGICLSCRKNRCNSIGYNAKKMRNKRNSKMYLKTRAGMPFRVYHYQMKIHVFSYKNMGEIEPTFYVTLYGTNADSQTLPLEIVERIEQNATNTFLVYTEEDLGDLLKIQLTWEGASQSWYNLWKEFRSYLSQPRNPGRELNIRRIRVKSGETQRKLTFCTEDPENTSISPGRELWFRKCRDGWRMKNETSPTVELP
Procedure, shortened: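 EL from conditioned medium of HT-1080 cells engineered to overexpress endogenous EL; HL partially purified from conditioned medium of HL-overexpressing COS cells. Enzyme preincubated with compound 30 min at 37° C in 50 mM HEPES pH 8.0, 50 mM NaCl, 1 mM CaCl2; DMPG vesicles carrying FRET substrate (0.11 mole fraction) then added.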

hepatic lipase (HL) = target: T2, hepatic lipase (HL) (Homo sapiens, UniProt P11150); assay: Hepatic lipase (HL) enzymatic assay, fluorescent substrate A10070 in DMPG vesicles; assay type: biochemical; details: HL partially purified from conditioned media of COS cells; compound preincubated 30 min at 37° C; read-out: HL IC50
T2 construct: made in house; host or cells: COS cells (conditioned medium, partially purified)
T2 sequence (P11150 23-499): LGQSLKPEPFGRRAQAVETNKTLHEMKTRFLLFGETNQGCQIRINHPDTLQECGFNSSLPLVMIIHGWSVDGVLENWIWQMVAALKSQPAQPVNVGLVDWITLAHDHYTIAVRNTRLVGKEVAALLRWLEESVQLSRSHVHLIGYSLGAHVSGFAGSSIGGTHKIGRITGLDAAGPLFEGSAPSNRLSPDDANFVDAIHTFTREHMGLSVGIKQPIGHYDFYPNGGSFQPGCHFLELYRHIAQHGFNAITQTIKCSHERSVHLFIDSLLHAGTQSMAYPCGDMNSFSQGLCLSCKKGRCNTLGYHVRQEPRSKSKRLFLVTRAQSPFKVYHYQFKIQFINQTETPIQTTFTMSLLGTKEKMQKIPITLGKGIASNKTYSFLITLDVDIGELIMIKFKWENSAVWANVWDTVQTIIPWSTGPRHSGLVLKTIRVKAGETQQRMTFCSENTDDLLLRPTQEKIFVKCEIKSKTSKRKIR
Description: Endothelial lipase (EL) and hepatic lipase (HL) activities were measured using a fluorescent substrate, A10070, (Invitrogen, CA) doped into an artificial vesicle containing DMPG (Avanti Polar Lipids) as the excipient. Vesicles were prepared by combining 571 μL of 29 mM DMPG in a 1:1 mixture of MeOH and CHCl3 with 2000 μL of 1 mM A10070 in a 1:1 mixture of MeOH and CHCl3. The mixture was dried under nitrogen in multiple vials then resuspended in 20 mL total volume of 50 mM HEPES pH 8.0 buffer containing 50 mM NaCl and 0.2 mM EDTA. The sample was allowed to sit at room temperature for 15 min and then was sonicated 3×4 mins on ice with a Branson Sonicator using duty cycle 1. This preparation provides vesicles with a mole fraction of 0.11 for the FRET substrate.
The enzymatic assay was measured using 384-well white Optiplates. Each well contained 20 μL of assay buffer (50 mM HEPES pH 8.0, 50 mM NaCl and 1 mM CaCl2) and 0.25 μL of a DMSO solution containing a compound of interest. EL or HL (10 μL) was added and allowed to incubate with the compound for 30 min at 37° C. The source of EL was conditioned media obtained from HT-1080 cells that were transformed using RAGE technology (Athersys) to overexpress endogenous EL, and HL was partially purified from conditioned media obtained from COS cells overexpressing HL. The reaction was started by the addition of 10 μL of a 1:10 dilution of vesicles. The final total reaction volume was […]. The reaction rates were measured on a Gemini plate reader with an excitation wavelength of 490 nm and an emission wavelength of 530 nm. Readings were taken over a period of 60 minutes, and the slope between 300 and 900 secs of the readout was used to calculate the rate of the reaction.

Row | Structure (SMILES) | IC50 (Endothelial lipase (EL)) | IC50 (hepatic lipase (HL))
1 | C#CCNC(=O)c1cccc(-c2ccc3nc(C(c4nnc(CNS(N)(=O)=O)o4)S(C)(=O)=O)sc3c2)c1 (stereo not drawn) [Example 265, 3-{2-[methanesulfonyl({5-[(sulfamoylamino)methyl]-1,3,4-oxadiazol-2-yl})methyl]-1,3-benzothiazol-6-yl}-N-(prop-2-yn-1-yl) benzamide] | 6 nM | 19 nM
2 | CC(C)(C)OC(=O)Cc1nnc(C(c2nc3ccc(-c4ccc(C(=O)N5CCOCC5)cc4)cc3s2)S(C)(=O)=O)o1 (stereo not drawn) [Example 107, tert-butyl (5-((methylsulfonyl)(6-(4-(4-morpholinylcarbonyl)phenyl)-1,3-benzothiazol-2-yl)methyl)-1,3,4-oxadiazol-2-yl)acetate] | 28 nM | 13 nM
3 | Cc1noc(C)c1-c1ccc2nc(C(c3nnc(CNS(N)(=O)=O)o3)S(C)(=O)=O)sc2c1 (stereo not drawn) [Example 117, N-[(5-{[6-(3,5-dimethyl-1,2-oxazol-4-yl)-1,3-benzothiazol-2-yl](methylsulfonyl)methyl}-1,3,4-oxadiazol-2-yl)methyl] sulfuric diamide] | 24 nM | 230 nM
4 | CC(C)(C)CNC(=O)c1cccc(-c2ccc3nc(C(c4nnc(CNS(N)(=O)=O)o4)S(C)(=O)=O)sc3c2)c1 (stereo not drawn) [Example 260, N-(2,2-dimethylpropyl)-3-{2-[methanesulfonyl({5-[(sulfamoylamino)methyl]-1,3,4-oxadiazol-2-yl})methyl]-1,3-benzothiazol-6-yl}benzamide] | 3 nM | 7 nM
5 | O=C1NC(=O)C(Cc2nnc(C(c3nc4ccc(-c5ccccc5)c(F)c4s3)S(=O)(=O)Cc3ccccc3)o2)S1 (stereo not drawn) [Example 162, 5-((5-((benzylsulfonyl)(7-fluoro-6-phenyl-1,3-benzothiazol-2-yl)methyl)-1,3,4-oxadiazol-2-yl)methyl)-1,3-thiazolidine-2,4-dione] | < 10 nM | < 10 nM
6 | Cn1cc(-c2cc3sc(C(c4nnc(CNS(N)(=O)=O)o4)S(=O)(=O)Cc4ccccc4)nc3cc2F)cn1 (stereo not drawn) [Example 158, N-((5-((benzylsulfonyl)(5-fluoro-6-(1-methyl-1H-pyrazol-4-yl)-1,3-benzothiazol-2-yl)methyl)-1,3,4-oxadiazol-2-yl)methyl) sulfamide] | < 10 nM | 21 nM
7 | CS(=O)(=O)C(c1nnc(CC2SC(=O)NC2=O)o1)c1nc2ccc(C3=CCOCC3)cc2s1 (stereo not drawn) [Example 99, 5-((5-((6-(3,6-dihydro-2H-pyran-4-yl)-1,3-benzothiazol-2-yl)(methylsulfonyl)methyl)-1,3,4-oxadiazol-2-yl)methyl)-1,3-thiazolidine-2,4-dione] | < 10 nM | 142 nM
8 | COCc1ccc(-c2ccc3nc(C(c4nnc(CNS(N)(=O)=O)o4)S(=O)(=O)Cc4cccc(F)c4)sc3c2)cc1 (stereo not drawn) [Example 241, N-({5-[(3-fluorophenyl)methanesulfonyl({6-[4-(methoxymethyl)phenyl]-1,3-benzothiazol-2-yl})methyl]-1,3,4-oxadiazol-2-yl}methyl)aminosulfonamide] | 1 nM | 1 nM
9 | COCc1ccc(-c2ccc3nc(C(c4nnc(CNS(N)(=O)=O)o4)S(=O)(=O)Cc4cc(Cl)cc(Cl)c4)sc3c2)cc1 (stereo not drawn) [Example 235, N-({5-[(3,5-dichlorophenyl)methanesulfonyl({6-[4-(methoxymethyl)phenyl]-1,3-benzothiazol-2-yl})methyl]-1,3,4-oxadiazol-2-yl}methyl)aminosulfonamide] | 4 nM | 6 nM
10 | NS(=O)(=O)NCc1nnc(C(c2nc3ccc(-c4cccc(C(=O)NCC(F)(F)F)c4)cc3s2)S(=O)(=O)CCC(F)(F)F)o1 (stereo not drawn) [Example 195, 3-(2-((5-((sulfamoylamino)methyl)-1,3,4-oxadiazol-2-yl)((3,3,3-trifluoropropyl)sulfonyl)methyl)-1,3-benzothiazol-6-yl)-N-(2,2,2-trifluoroethyl)benzamide] | < 10 nM | 336 nM
11 | COCCNC(=O)c1cccc(-c2ccc3nc(C(c4nnc(CC5(C)NC(=O)NC5=O)o4)S(C)(=O)=O)sc3c2)c1 (stereo not drawn) [Example 205, 3-{2-[methanesulfonyl({5-[(4-methyl-2,5-dioxoimidazolidin-4-yl)methyl]-1,3,4-oxadiazol-2-yl})methyl]-1,3-benzothiazol-6-yl}-N-(2-methoxyethyl)benzamide] | 18 nM | 449 nM

Continued, values first:

Row | IC50 (Endothelial lipase (EL)) | IC50 (hepatic lipase (HL)) | Structure (SMILES)
12 | 35 nM | 58 nM | CS(=O)(=O)NCc1nnc(C(c2nc3ccc(-c4ccc(C(=O)N5CCOCC5)cc4)cc3s2)S(C)(=O)=O)o1 (stereo not drawn) [Example 173, N-((5-((Methylsulfonyl)(6-(4-(4-morpholinylcarbonyl)phenyl)-1,3-benzothiazol-2-yl)methyl)-1,3,4-oxadiazol-2-yl)methyl)methanesulfonamide]
13 | < 10 nM | 22 nM | CS(=O)(=O)C(c1nnc(CNS(N)(=O)=O)o1)c1nc2ccc(-c3ccc(C(=O)N4CCOCC4)cc3)cc2s1 (stereo not drawn) [Example 130, N-((5-((methylsulfonyl)(6-(4-(4-morpholinylcarbonyl)phenyl)-1,3-benzothiazol-2-yl)methyl)-1,3,4-oxadiazol-2-yl)methyl)sulfamide]
14 | 4 nM | 26 nM | CS(=O)(=O)C(c1nnc(CNS(N)(=O)=O)o1)c1nc2ccc(-c3cccc(C(=O)Nc4cccnc4)c3)cc2s1 (stereo not drawn) [Example 263, 3-{2-[methanesulfonyl({5-[(sulfamoylamino)methyl]-1,3,4-oxadiazol-2-yl})methyl]-1,3-benzothiazol-6-yl}-N-(pyridin-3-yl) benzamide]
15 | 5 nM | 26 nM | Cc1noc(C)c1-c1ccc2sc(C(c3nnc(CNS(N)(=O)=O)o3)S(C)(=O)=O)nc2c1 (stereo not drawn) [Example 248, N-[(5-{[5-(dimethyl-1,2-oxazol-4-yl)-1,3-benzothiazol-2-yl] (methanesulfonyl)methyl}-1,3,4-oxadiazol-2-yl)methyl] aminosulfonamide]
16 | < 10 nM | < 10 nM | COC(=O)CCS(=O)(=O)C(c1nnc(CNS(N)(=O)=O)o1)c1nc2ccc(-c3cnn(C)c3)cc2s1 (stereo not drawn) [Example 112, methyl 3-(((6-(1-methyl-1H-pyrazol-4-yl)-1,3-benzothiazol-2-yl)(5-((sulfamoylamino)methyl)-1,3,4-oxadiazol-2-yl)methyl)sulfonyl)propanoate]
17 | < 10 nM | 160 nM | CC(=O)NS(=O)(=O)Cc1nnc(C(c2nc3ccc(-c4ccccc4)cc3s2)S(C)(=O)=O)o1 (stereo not drawn) [Example 169, N-(((5-((Methylsulfonyl)(6-phenyl-1,3-benzothiazol-2-yl)methyl)-1,3,4-oxadiazol-2-yl)methyl)sulfonyl)acetamide]
18 | 32 nM | 22300 nM | CS(=O)(=O)C(c1nnc(CNS(N)(=O)=O)o1)c1nc2ccc(-c3cnn(CCN4CCOCC4)c3)cc2s1 (stereo not drawn) [Example 132, N-((5-((methylsulfonyl)(6-(1-(2-(4-morpholinyl)ethyl)-1H-pyrazol-4-yl)-1,3-benzothiazol-2-yl)methyl)-1,3,4-oxadiazol-2-yl)methyl) sulfamide]
